In paper PMC11596536, “Unveiling the Anticancer Potential of a New Ciprofloxacin-Chalcone Hybrid as an Inhibitor of Topoisomerases I & II and Apoptotic Inducer” (Molecules, 2024):

Target: T1, Topoisomerase I (Homo sapiens, UniProt P11387)
T1 construct: gene TOP1
T1 sequence (P11387 2-765): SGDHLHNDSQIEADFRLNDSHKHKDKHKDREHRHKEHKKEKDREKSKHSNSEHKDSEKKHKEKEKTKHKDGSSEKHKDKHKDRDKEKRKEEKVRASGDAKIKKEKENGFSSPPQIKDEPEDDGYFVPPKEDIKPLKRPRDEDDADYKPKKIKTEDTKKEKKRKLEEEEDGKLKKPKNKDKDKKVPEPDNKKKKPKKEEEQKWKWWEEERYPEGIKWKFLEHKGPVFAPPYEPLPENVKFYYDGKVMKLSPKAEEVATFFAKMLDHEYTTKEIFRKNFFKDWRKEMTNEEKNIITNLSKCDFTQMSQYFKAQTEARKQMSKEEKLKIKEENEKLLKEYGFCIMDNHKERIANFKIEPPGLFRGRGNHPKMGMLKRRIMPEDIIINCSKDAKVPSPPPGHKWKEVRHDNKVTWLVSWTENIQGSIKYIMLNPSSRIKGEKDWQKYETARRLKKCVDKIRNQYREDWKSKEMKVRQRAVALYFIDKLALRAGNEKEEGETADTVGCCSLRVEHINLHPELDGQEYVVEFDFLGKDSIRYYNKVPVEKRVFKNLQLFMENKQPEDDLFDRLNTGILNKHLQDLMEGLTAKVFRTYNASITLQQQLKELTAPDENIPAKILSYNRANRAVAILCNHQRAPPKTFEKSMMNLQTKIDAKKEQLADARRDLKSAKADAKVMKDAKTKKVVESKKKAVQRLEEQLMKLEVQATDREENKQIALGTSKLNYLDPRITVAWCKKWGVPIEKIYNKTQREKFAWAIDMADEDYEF
Experiment: Topo I DNA relaxation assay (commercial kit), agarose gel electrophoresis
Type: biochemical

Q: `O=C(/C=C/c1ccc(Cl)cc1)c1ccc(NC(=O)N2CCN(c3cc4c(cc3F)c(=O)c(C(=O)O)cn4C3CC3)CC2)cc1` [compound 2, 7-(4-((4-(3-(4-Chlorophenyl)acryloyl)phenyl)carbamoyl)piperazin-1-yl)-1-cyclopropyl-6-fluoro-4-oxo-1,4-dihydroquinoline-3-carboxylic acid] was tested. Which IC50 did it give?
A: 37.5 µM
